# Calls of active or inactive are those of the source. No cut-off for these calls is given here.
# What was measured:
# CHO [1] = assay: Antioxidant activity in Cricetulus griseus CHO (Chinese hamster ovary) cells assessed as proportion of H2O2-induced chromosomal aberrations bearing cells at 200 uM pre-incubated with H202 for 1 hr prior to cell addition by Giemsa staining; format: functional
# CHO [2] = assay: Antioxidant activity in Cricetulus griseus CHO (Chinese hamster ovary) cells assessed as protection against H2O2-induced chromosomal aberrations treated for 15 min prior to H2O2 addition measured after 2 hr by Giemsa staining; format: functional, cell-based
# CHO [3] = assay: Genotoxicity in Cricetulus griseus CHO (Chinese hamster ovary) cells assessed as increase in frequencies of sister chromatid exchange bearing cells at 0.5 to 2 mM by fluorescence-plus-Giemsa technique; format: toxicity, cell-based; details: 2000 µM
# CHO [4] = assay: Genotoxicity in Cricetulus griseus CHO (Chinese hamster ovary) cells assessed as increase in frequencies of chromosomal aberrations bearing cells at 0.5 to 2 mM by Giemsa staining; format: toxicity, cell-based; details: 2000 µM
# CHO [5] = assay: Genotoxicity in Cricetulus griseus CHO (Chinese hamster ovary) cells assessed as slight increase in frequencies of sister chromatid exchange bearing cells at 200 uM by fluorescence-plus-Giemsa technique; format: toxicity, cell-based
# CHO [6] = assay: Genotoxicity in Cricetulus griseus CHO (Chinese hamster ovary) cells assessed as effect on frequencies of sister chromatid exchange bearing cells at <200 uM by fluorescence-plus-Giemsa technique; format: toxicity, cell-based
# CHO [7] = assay: Genotoxicity in Cricetulus griseus CHO (Chinese hamster ovary) cells assessed as effect on frequencies of chromosomal aberrations bearing cells at <200 uM by Giemsa staining; format: toxicity, cell-based
# CHO [8] = assay: Cytotoxicity against Cricetulus griseus CHO (Chinese hamster ovary) cells assessed as frequency of third generation of mitotic cells at 1000 uM treated for 3 hr by BrdU assay (reference value: 0%); format: cell-based
# CHO [9] = assay: Cytotoxicity against Cricetulus griseus CHO (Chinese hamster ovary) cells assessed as frequency of third generation of mitotic cells at 200 uM treated for 3 hr by BrdU assay (reference value: 0%); format: cell-based
# CHO [10] = assay: Cytotoxicity against Cricetulus griseus CHO (Chinese hamster ovary) cells assessed as frequency of third generation of mitotic cells at 100 uM treated for 3 hr by BrdU assay (reference value: 0%); format: cell-based
# CHO [11] = assay: Cytotoxicity against Cricetulus griseus CHO (Chinese hamster ovary) cells assessed as frequency of third generation of mitotic cells at 50 uM treated for 3 hr by BrdU assay (reference value: 0%); format: cell-based
# CHO [12] = assay: Cytotoxicity against Cricetulus griseus CHO (Chinese hamster ovary) cells assessed as frequency of second generation of mitotic cells at 1000 uM treated for 3 hr by BrdU assay (reference value: 90%); format: cell-based
# CHO [13] = assay: Cytotoxicity against Cricetulus griseus CHO (Chinese hamster ovary) cells assessed as frequency of second generation of mitotic cells at 200 uM treated for 3 hr by BrdU assay (reference value: 90%); format: cell-based
# CHO [14] = assay: Cytotoxicity against Cricetulus griseus CHO (Chinese hamster ovary) cells assessed as frequency of second generation of mitotic cells at 100 uM treated for 3 hr by BrdU assay (reference value: 90%); format: cell-based
# CHO [15] = assay: Cytotoxicity against Cricetulus griseus CHO (Chinese hamster ovary) cells assessed as frequency of second generation of mitotic cells at 50 uM treated for 3 hr by BrdU assay (reference value: 90%); format: cell-based
# CHO [16] = assay: Cytotoxicity against Cricetulus griseus CHO (Chinese hamster ovary) cells assessed as frequency of first generation of mitotic cells at 1000 uM treated for 3 hr by BrdU assay (reference value: 10%); format: cell-based
# CHO [17] = assay: Cytotoxicity against Cricetulus griseus CHO (Chinese hamster ovary) cells assessed as frequency of first generation of mitotic cells at 200 uM treated for 3 hr by BrdU assay (reference value: 10%); format: cell-based
# CHO [18] = assay: Cytotoxicity against Cricetulus griseus CHO (Chinese hamster ovary) cells assessed as frequency of first generation of mitotic cells at 100 uM treated for 3 hr by BrdU assay (reference value: 10%); format: cell-based
# CHO [19] = assay: Cytotoxicity against Cricetulus griseus CHO (Chinese hamster ovary) cells assessed as frequency of first generation of mitotic cells at 50 uM treated for 3 hr by BrdU assay (reference value: 10%); format: cell-based
# CHO [20] = assay: Cytotoxicity against Cricetulus griseus CHO (Chinese hamster ovary) cells assessed as proliferative replication index at 1000 uM treated for 3 hr by BrdU assay relative to untreated control (reference value: 100%); format: cell-based
# CHO [21] = assay: Cytotoxicity against Cricetulus griseus CHO (Chinese hamster ovary) cells assessed as proliferative replication index at 200 uM treated for 3 hr by BrdU assay relative to untreated control (reference value: 100%); format: cell-based
# CHO [22] = assay: Cytotoxicity against Cricetulus griseus CHO (Chinese hamster ovary) cells assessed as proliferative replication index at 100 uM treated for 3 hr by BrdU assay relative to untreated control (reference value: 100%); format: cell-based
# CHO [23] = assay: Cytotoxicity against Cricetulus griseus CHO (Chinese hamster ovary) cells assessed as proliferative replication index at 50 uM treated for 3 hr by BrdU assay relative to untreated control (reference value: 100%); format: cell-based
# CHO [24] = assay: Cytotoxicity against Cricetulus griseus CHO (Chinese hamster ovary) cells assessed as mitotic index at 1000 uM treated for 3 hr by Giemsa staining based light microscopic analysis relative to untreated control (reference value: 100%); format: cell-based
# CHO [25] = assay: Cytotoxicity against Cricetulus griseus CHO (Chinese hamster ovary) cells assessed as mitotic index at 500 uM treated for 3 hr by Giemsa staining based light microscopic analysis relative to untreated control (reference value: 100%); format: cell-based
# CHO [26] = assay: Cytotoxicity against Cricetulus griseus CHO (Chinese hamster ovary) cells assessed as mitotic index at 200 uM treated for 3 hr by Giemsa staining based light microscopic analysis relative to untreated control (reference value: 100%); format: cell-based
# CHO [27] = assay: Cytotoxicity against Cricetulus griseus CHO (Chinese hamster ovary) cells assessed as mitotic index at 100 uM treated for 3 hr by Giemsa staining based light microscopic analysis relative to untreated control (reference value: 100%); format: cell-based
# CHO [28] = assay: Cytotoxicity against Cricetulus griseus CHO (Chinese hamster ovary) cells assessed as mitotic index at 50 uM treated for 3 hr by Giemsa staining based light microscopic analysis relative to untreated control (reference value: 100%); format: cell-based
smiles,measurement,setting,value
COCCc1cc(O)c(O)c(O)c1,Activity,CHO [1],5%
same,Activity,CHO [2],Active
same,Activity,CHO [3],Toxic
same,Activity,CHO [4],Toxic
same,Activity,CHO [5],Toxic
same,Activity,CHO [6],Non-toxic
same,Activity,CHO [7],Non-toxic
same,Activity,CHO [8],0%
same,Activity,CHO [9],0%
same,Activity,CHO [10],0%
same,Activity,CHO [11],0%
same,Activity,CHO [12],0%
same,Activity,CHO [13],66%
same,Activity,CHO [14],82%
same,Activity,CHO [15],94%
same,Activity,CHO [16],0%
same,Activity,CHO [17],34%
same,Activity,CHO [18],18%
same,Activity,CHO [19],6%
same,Activity,CHO [20],0%
same,Activity,CHO [21],87%
same,Activity,CHO [22],96%
same,Activity,CHO [23],102%
same,Activity,CHO [24],0%
same,Activity,CHO [25],15.6%
same,Activity,CHO [26],87.7%
same,Activity,CHO [27],80.8%
same,Activity,CHO [28],79.1%
"OCCc1cc(O)c(O)c(O)c1 [3,4,5-TRIHYDROXYPHENETHYL ALCOHOL]",Activity,CHO [1],5%
same,Activity,CHO [2],Active
same,Activity,CHO [3],Toxic
same,Activity,CHO [4],Toxic
same,Activity,CHO [5],Toxic
same,Activity,CHO [6],Non-toxic
same,Activity,CHO [7],Non-toxic
same,Activity,CHO [8],0%
same,Activity,CHO [9],0%
same,Activity,CHO [10],0%
same,Activity,CHO [11],0%
same,Activity,CHO [12],0%
same,Activity,CHO [13],50%
same,Activity,CHO [14],75%
same,Activity,CHO [15],92%
same,Activity,CHO [16],0%
same,Activity,CHO [17],50%
same,Activity,CHO [18],25%
same,Activity,CHO [19],8%
same,Activity,CHO [20],0%
same,Activity,CHO [21],79%
same,Activity,CHO [22],92%
same,Activity,CHO [23],100%
same,Activity,CHO [24],0%
same,Activity,CHO [25],4.3%
same,Activity,CHO [26],58.3%
same,Activity,CHO [27],99.1%
same,Activity,CHO [28],96.5%
